SMILES strings stand for the structures. Like-named read-outs stand apart in the source and are kept apart here.

Series [1] deals with anaesthetized dog. As to the kind of experiment: Antiangorous activity on anaesthetized dog: consumption of oxygen in the left ventricule and cardiac effort (KATZ's index). The series is classed as in vivo. The note with it: for inhibition in vivo at 2.5 mg/kg / inhibition in vivo at 0.625 mg/kg / inhibition in vivo at […] / inhibition in vivo at 2.3 mg/kg / inhibition in vivo at 0.6 mg/kg / inhibition in vivo at 2.1 mg/kg: Canis lupus familiaris, iv; for inhibition in vivo at […]: 0.15 mg/kg i.v. slow perfusion. As for the experimental part: The antiangorous activity was tested on an anaesthetized dog (sodium pentobarbital 30 mg/kg/i.v.).
The consumption of oxygen in the left ventricule was estimated by the product of the coronary venous flow and the coronary arteriovenous difference in oxygen (% volume).
The coronary venous flow was measured at the coronary venous sinus by means of a modified Morawitz cannula, introduced under radioscopic control.
The cardiac effort was estimated according to KATZ's index, by the product of the average arterial pressure and the cardiac frequency.
The cardiac frequency was estimated from the electrocardiogram recorded with D2 derivation.
It should be noted that the compounds tested were injected intravenously with slow perfusion.

Series [2] can be described thus: in vivo. The note with it: for LD50: read-out: Toxicity: LD50; for mortality: read-out: Toxicity (Mortality). The text has this:
*LD50 or percentage of mortality which is given between brackets

Setting [3] is: 2.5 mg/kg i.v. slow perfusion, read-out: Diminution in consumption of O2.
The mark [4] stands for this setting: 2.5 mg/kg i.v. slow perfusion, read-out: Diminution in the cardiac effort (IK).
[5] abbreviates: 0.625 mg/kg i.v. slow perfusion.
Where [6] appears, read: 0.625 mg/kg i.v. slow perfusion, read-out: Diminution in consumption of O2.
The mark [7] stands for this setting: 0.625 mg/kg i.v. slow perfusion, read-out: Diminution in the cardiac effort (IK).
Where [8] appears, read: read-out: Diminution in consumption of O2.
The mark [9] stands for this setting: read-out: Diminution in the cardiac effort (IK).

For the molecule `COc1cc(/C=C/C(=O)N2CCN(CC(O)COc3ccc([N+](=O)[O-])cc3Cl)CC2)cc(OC)c1OC` (stereo not shown) [771 124], the “Diminution in consumption of O2: in time” value in series [1] (2.5 mg/kg i.v. slow perfusion) came out at 15 min. Moreover, in series [1] (2.5 mg/kg i.v. slow perfusion), the “Diminution in the cardiac effort (IK): in time” value (“Diminution in the cardiac effort” for short) came to 23 min. The values for the inhibition in vivo at 2.5 mg/kg in series [1] (setting [3]) and in series [1] (setting [4]) were 34% and 13%, respectively. For the same molecule, in series [2] (iv), the LD50 is 270 mg/kg.
Regarding `COc1cc(/C=C/C(=O)N2CCN(CC(O)COc3ccc(NC(=O)C4CCCCC4)c4c3OCCO4)CC2)cc(OC)c1OC` (stereo not shown) [770 533], the “Diminution in consumption of O2: in time” value in series [1] (setting [5]) worked out at 25 min. The “Diminution in the cardiac effort” value in series [1] (setting [5]) amounted to 25 min. In addition, the inhibition in vivo at 0.625 mg/kg in series [1] (setting [6]) turned out to be 30%; in series [1] (setting [7]), 28%. For the same molecule, the mortality in series [2] (po, p.o.: 2000 mg/kg) was 10%.
As for `COc1cc(/C=C/C(=O)N2CCN(CC(O)COc3ccc(C(=O)Nc4ccccc4)c4c3OCCO4)CC2)cc(OC)c1OC` (stereo not shown) [770 848], the inhibition in vivo at […] amounted to 41% in series [1] (setting [8]) and 5% in series [1] (setting [9]). Moreover, the mortality in series [2] (iv, 400 mg/kg i.v.) turned out to be 10%.
The matching figures for `CNC(=O)Nc1ccc(OCC(O)CN2CCN(C(=O)/C=C/c3cc(OC)c(OC)c(OC)c3)CC2)c2c1OCCO2` (stereo not shown) [770 077]: 44%, 28% and 0%.
Take `COc1cc(/C=C/C(=O)N2CCN(CC(O)COc3ccccc3F)CC2)cc(OC)c1OC` (stereo not shown) [760 619]: in series [1] (2.3 mg/kg i.v. slow perfusion), the “Diminution in consumption of O2: in time” value stood at 30 min and the “Diminution in the cardiac effort” value amounted to 30 min. Besides, the inhibition in vivo at 2.3 mg/kg in series [1] (2.3 mg/kg i.v. slow perfusion, read-out: Diminution in consumption of O2) turned out to be 55%. In series [1] (2.3 mg/kg i.v. slow perfusion, read-out: Diminution in the cardiac effort (IK)), the inhibition in vivo at 2.3 mg/kg is 44%. Moreover, the LD50 in series [2] (iv) amounted to 158 mg/kg.
In the case of `COc1cc(/C=C/C(=O)N2CCN(CC(O)COc3ccc(NC(C)=O)c4c3OCCCO4)CC2)cc(OC)c1OC` (stereo not shown) [780 393], in series [1] (setting [5]), the “Diminution in consumption of O2: in time” value came to 30 min and the “Diminution in the cardiac effort” value was found to be 30 min. In series [1] (setting [6]), the inhibition in vivo at 0.625 mg/kg came to 24%. Besides, the inhibition in vivo at 0.625 mg/kg in series [1] (setting [7]) was 45%. The mortality in series [2] (iv, 400 mg/kg i.v.) was determined as 10%.
Turning to `COc1cc(/C=C/C(=O)N2CCN(CC(O)COc3ccc(NC(C)=O)cc3)CC2)cc(OC)c1OC` (stereo not shown) [760 542], in series [1] (2.5 mg/kg i.v. slow perfusion), the “Diminution in consumption of O2: in time” value is on record as 45 min. Also, in series [1] (2.5 mg/kg i.v. slow perfusion), the “Diminution in the cardiac effort” value came to 50 min. The inhibition in vivo at 2.5 mg/kg in series [1] (setting [3]) is 64%; in series [1] (setting [4]), 32%. For the same molecule, the mortality in series [2] (iv, 400 mg/kg i.v.) is 0%.
Take `CCCC(=O)c1ccc(OCC(O)CN2CCN(C(=O)/C=C/c3cc(OC)c(OC)c(OC)c3)CC2)c2c1OCCO2` (stereo not shown) [760 866]: the “Diminution in consumption of O2: in time” value in series [1] (0.6 mg/kg i.v. slow perfusion) worked out at 30 min. The “Diminution in the cardiac effort” value in series [1] (0.6 mg/kg i.v. slow perfusion) came out at 30 min. In addition, the inhibition in vivo at 0.6 mg/kg in series [1] (0.6 mg/kg i.v. slow perfusion, read-out: Diminution in consumption of O2) amounted to 54%; in series [1] (0.6 mg/kg i.v. slow perfusion, read-out: Diminution in the cardiac effort (IK)), 20%. Also, the mortality in series [2] (iv, 360 mg/kg i.v.) is 30%.
As for `CCCC(=O)Nc1ccc(OCC(O)CN2CCN(C(=O)/C=C/c3cc(OC)c(OC)c(OC)c3)CC2)cc1` (stereo not shown) [760 892], in series [1] (2.5 mg/kg i.v. slow perfusion), the “Diminution in consumption of O2: in time” value came out at 60 min and the “Diminution in the cardiac effort” value is 45 min. The inhibition in vivo at 2.5 mg/kg in series [1] (setting [3]) was 74%. In series [1] (setting [4]), the inhibition in vivo at 2.5 mg/kg turned out to be 22%. For the same molecule, the mortality in series [2] (iv, 400 mg/kg i.v.) turned out to be 40%.
Turning to `COc1cc(/C=C/C(=O)N2CCN(CC(O)COc3ccc(C(C)=O)c4c3OCCO4)CC2)cc(OC)c1OC` (stereo not shown) [760 394], in series [1] (2.1 mg/kg i.v. slow perfusion), the “Diminution in consumption of O2: in time” value is 60 min and the “Diminution in the cardiac effort” value is recorded as 45 min. The inhibition in vivo at 2.1 mg/kg in series [1] (2.1 mg/kg i.v. slow perfusion, read-out: Diminution in consumption of O2) is 60%. The inhibition in vivo at 2.1 mg/kg in series [1] (2.1 mg/kg i.v. slow perfusion, read-out: Diminution in the cardiac effort (IK)) was 46%. Moreover, the LD50 in series [2] (iv) is 214 mg/kg.

The values are drawn from patent US4178442A, “Novel cinnamoyles piperazines and homopiperazines, the method of preparing them and their application in therapeutics” (Delalande S. A., priority 1977, dated 1979).
